Where two headings read alike, the source gives them in different places. Numbered stars: 1 amine (or outer) side, 2 acyl side, 3 side chain; on linkers, the order of the positions; unused ones are H or OH. Square brackets hold non-standard residues; d marks the D form. Side chains are listed from the residue outwards. Peptide text beside a SMILES is read from it. NMeF = CN[C@@H](Cc1ccccc1)C(=O)O; CO = O=C([*:1])[*:2]
Experiments:
[1] = molecular target: T1, chitinase B1 from Aspergillus fumigatus (AfChiB1) (Aspergillus fumigatus, UniProt Q873X9); test: biochemical; conditions: for AfChiB1 BEI (Binding Efficiency Index): BEI = −log(Ki)/M, M in kilodaltons, Ki derived from IC50 by Cheng and Prusoff equation
T1 construct: made in house; host or cells: Escherichia coli
Method: Chitinase activities for AfChiB1 ([Rao et al., 2005b]), hCHT ([Boot et al., 1998]), and total chitinase activity in lung homogenate samples from a mouse model of chronic asthma were determined as previously described ([Schüttelkopf et al., 2006]). […] AfChiB1 (2 nM) was incubated with 20 μM 4-methylumbelliferyl-β-D-N-N'-diacetylchitobiose (4MU-GlcNAc2; Sigma) and 0.25 mg/ml bovine serum albumin in 100 mM citric acid, 200 mM Na2HPO4 (pH 5.5). hCHT (0.3 nM) was incubated with 22 μM 4-methylumbelliferyl-β-D-N-N'-triacetylchitobiose (4MU-GlcNAc3; Sigma) and 0.25 mg/ml bovine serum albumin in 100 mM citric acid, 200 mM Na2HPO4 (pH 5.2). Lung homogenate (39 μg/ml) (obtained as described previously [[Schüttelkopf et al., 2006]]) was incubated with 20 μM 4MU-GlcNAc2 in 100 mM citric acid, 200 mM Na2HPO4 (pH 5.5). All reactions were run for 10 min at 37°C, and liberated 4-methylumbelliferone (4MU) was quantified after addition of 25 μl 3 M glycine-NaOH (pH 10.6) using an Flx 800 microtiterplate fluorescence reader (Bio-Tek instruments) with 40 nm slits and excitation and emission wavelengths of 360 nm and 460 nm, respectively.

[2] = molecular target: chitinase B from Serratia marcescens; parameters: method as in Houston et al., 2002b; conditions: ref Houston et al., 2002b; read-out: IC50 against chitinase B from Serratia marcescens; cited from earlier work
[3] = molecular target: T1, chitinase B1 from Aspergillus fumigatus (AfChiB1); conditions: Table 1, argifin value reported previously, ref Rao et al., 2005b, Dixon et al.; cited from earlier work

CNC(=N)NC(=O)NC [Dimethylguanylurea, dimethylguanylurea]
AfChiB1 BEI (Binding Efficiency Index) [1]: 27.7

CNC(=O)NC(=N)NCCCC(NC(C)=O)C(=O)NC (stereo not shown) [Monopeptide]
AfChiB1 BEI (Binding Efficiency Index) [1]: 15.3
IC50 ([1]; read-out: IC50 against AfChiB1): 81 µM

CNC(=O)NC(=N)NCCC[C@H](NC(C)=O)C(=O)N(C)[C@@H](Cc1ccccc1)C(=O)N[C@@H](CC(=O)O)C(=O)O [Tripeptide] (Ac-Arg([CO-NHMe])-[NMeF]-Asp-OH)
AfChiB1 BEI (Binding Efficiency Index) [1]: 10.2

argifin
AfChiB1 BEI (Binding Efficiency Index) [1]: 11.7
IC50 [2]: 33 µM
IC50 [3]: 0.027 µM
